{
  "source": "paper PMC2736638",
  "about": "(Journal of medicinal chemistry, 2009)",
  "key": {"HIV-1NL4-3": {"system": "HIV-1NL4-3", "experiment": "HIV-1NL4-3 replication inhibition assay in MT-4 lymphocytes", "type": "cell-based", "settings": "HIV-1NL4-3, MT-4 cells"}, "Solubility": {"experiment": "Solubility", "type": "physicochemical", "settings": "qualitative"}, "HIV-1IIIB": {"system": "HIV-1IIIB", "experiment": "HIV-1IIIB replication inhibition assay in MT-2 lymphocytes", "type": "cell-based", "settings": "for TI = CC50/EC50: HIV-1IIIB, MT-2 cells"}, "[1]": {"settings": "incubation time 0 min; 3 μM, 0.2 mg/mL human liver microsome, NADPH"}, "in vitro": {"experiment": "in vitro", "settings": "human, microsomes, pH 7.4"}},
  "note": "Where “and” joins values, the source holds several entries; their conditions need not be identical. Equal values may be shown once. Entries after “also recorded” stand apart in the source; their conditions may differ.",
  "data": [
    {"smiles": "C=C(C)[C@@H]1CC[C@]2(C(=O)NCCCCCCCC(=O)N[C@@H](CC(C)C)[C@H](O)CC(=O)O)CC[C@]3(C)[C@H](CC[C@@H]4[C@@]5(C)CC[C@H](O)C(C)(C)[C@@H]5CC[C@]43C)[C@@H]12", "note": "[Compound 3b, (3R,4S)-N’-[N-[3β-hydroxylup-20(29)-en-28-oyl]-8-aminooctanoyl]-4-amino-3-hydroxy-6-methylheptanoic acid]", "values": [
      {"measurement": "TI = CC50/EC50", "setting": "HIV-1NL4-3", "result": "> 112.4"}
    ]},
    {"smiles": "C=C(COCCN1CCOCC1)[C@@H]1CC[C@]2(C(=O)NCCCCCCCC(=O)O)CC[C@]3(C)[C@H](CC[C@@H]4[C@@]5(C)CC[C@H](O)C(C)(C)[C@@H]5CC[C@]43C)[C@@H]12", "note": "[Compound 20, N-[3β-Hydroxy-30-(2′-morpholinoethoxy)-lup-20(29)-en-28-oyl]-8-aminooctanoic acid]", "values": [
      {"measurement": "solubility", "setting": "Solubility", "result": "increase in the derivative’s solubility"}
    ]},
    {"smiles": "C=C(COCCN1CCOCC1)[C@@H]1CC[C@]2(C(=O)NCCCCCCCC(=O)NC)CC[C@]3(C)[C@H](CC[C@@H]4[C@@]5(C)CC[C@H](O)C(C)(C)[C@@H]5CC[C@]43C)[C@@H]12", "note": "[Compound 21]", "values": [
      {"measurement": "solubility", "setting": "Solubility", "result": "improved solubility; also recorded: good solubility"}
    ]},
    {"smiles": "C=C(C)[C@@H]1CC[C@]2(C(=O)N[C@@H](CC(C)C)C(=O)O)CC[C@]3(C)[C@H](CC[C@@H]4[C@@]5(C)CC[C@H](O)C(C)(C)[C@@H]5CC[C@]43C)[C@@H]12", "note": "[Compound 22, N-[3β-Hydroxy-lup-20(29)-en-28-oyl]-leucine]", "values": [
      {"measurement": "EC50: concentration that inhibits HIV-1IIIB replication by 50%", "setting": "HIV-1IIIB; HIV-1IIIB infected MT-2 cells, averages of at least three experiments", "result": "did not exhibit antiviral replication activity"}
    ]},
    {"smiles": "C=C(C)[C@@H]1CC[C@]2(C(=O)NCCCCCCCC(=O)O)CC[C@]3(C)[C@H](CC[C@@H]4[C@@]5(C)CC[C@H](O)C(C)(C)[C@@H]5CC[C@]43C)[C@@H]12", "note": "[Compound 23, N-[3β-Hydroxy-lup-20(29)-en-28-oyl]-8-aminooctanoic acid]", "values": [
      {"measurement": "Persentage of Remaining Parent Compounds (X±SD)%", "setting": "[1]", "result": 100.0, "unit": "%"}
    ]},
    {"smiles": "C=C(CBr)[C@@H]1CC[C@]2(C(=O)N[C@@H](CC(C)C)C(=O)O)CC[C@]3(C)[C@H](CC[C@@H]4[C@@]5(C)CC[C@H](OC(=O)CC(C)(C)C(=O)O)C(C)(C)[C@@H]5CC[C@]43C)[C@@H]12", "note": "[Compound 30, N-[3β-O-(3′,3′-Dimethylsuccinyl)-30-bromo-lup-20(29)-en-28-oyl]-leucine]", "values": [
      {"measurement": "TI = CC50/EC50", "setting": "HIV-1IIIB", "result": "3.0×10^3 and 3,022"}
    ]},
    {"smiles": "C=C(C)[C@@H]1CC[C@]2(C(=O)N3CCC(CCCC(=O)O)CC3)CC[C@]3(C)[C@H](CC[C@@H]4[C@@]5(C)CC[C@H](O)C(C)(C)[C@@H]5CC[C@]43C)[C@@H]12", "note": "[Compound 38, N-[3β-Hydroxy-lup-20(29)-en-28-oyl]-4-piperidine butyric acid]", "values": [
      {"measurement": "Persentage of Remaining Parent Compounds (X±SD)%", "setting": "[1]", "result": 100.0, "unit": "%"},
      {"measurement": "half-life", "setting": "in vitro", "result": "~125", "unit": "min"}
    ]},
    {"smiles": "C=C(C)[C@@H]1CC[C@]2(C(=O)N3CCC(CCCC(=O)O)CC3)CC[C@]3(C)[C@H](CC[C@@H]4[C@@]5(C)CC[C@H](OC(=O)CC(C)(C)C(=O)O)C(C)(C)[C@@H]5CC[C@]43C)[C@@H]12", "note": "[Compound 39, N-[3β-O-(3′,3′-Dimethylsuccinyl)-lup-20(29)-en-28-oyl]-4-piperidine butyric acid]", "values": [
      {"measurement": "TI = CC50/EC50", "setting": "HIV-1IIIB", "result": "1.4 ×10^3 and 1,389"}
    ]},
    {"smiles": "C=C(C)[C@@H]1CC[C@]2(C(=O)N3CCC(CCCC(=O)NC)CC3)CC[C@]3(C)[C@H](CC[C@@H]4[C@@]5(C)CC[C@H](OC(=O)CC(C)(C)C(=O)O)C(C)(C)[C@@H]5CC[C@]43C)[C@@H]12", "note": "[Compound 45, N’-[N-[3β-O-(3′,3′-Dimethylsuccinyl)-lup-20(29)-en-28-oyl]-4-piperidine-butanoyl]-aminomethane]", "values": [
      {"measurement": "TI = CC50/EC50", "setting": "HIV-1NL4-3", "result": "> 41.7"}
    ]},
    {"smiles": "C=C(C)[C@@H]1CC[C@]2(C(=O)N3CCC(CCCC(=O)N4CCOCC4)CC3)CC[C@]3(C)[C@H](CC[C@@H]4[C@@]5(C)CC[C@H](OC(=O)CC(C)(C)C(=O)O)C(C)(C)[C@@H]5CC[C@]43C)[C@@H]12", "note": "[Compound 46, N’-[N-[3β-O-(3′,3′-Dimethylsuccinyl)-lup-20(29)-en-28-oyl]-4-piperidine-butanoyl]-morpholine]", "values": [
      {"measurement": "TI = CC50/EC50", "setting": "HIV-1IIIB", "result": "1,748"}
    ]},
    {"smiles": "C=C(C)[C@@H]1CC[C@]2(C(=O)N3CCC(CCCC(=O)NCCN4CCOCC4)CC3)CC[C@]3(C)[C@H](CC[C@@H]4[C@@]5(C)CC[C@H](OC(=O)CC(C)(C)C(=O)O)C(C)(C)[C@@H]5CC[C@]43C)[C@@H]12", "note": "[Compound 47, N’-[N-[3β-O-(3′,3′-Dimethylsuccinyl)-lup-20(29)-en-28-oyl]-4-piperidine-butanoyl]-2-aminoethylmorpholine]", "values": [
      {"measurement": "TI = CC50/EC50", "setting": "HIV-1IIIB", "result": "2,473"}
    ]},
    {"smiles": "C=C(C)[C@@H]1CC[C@]2(C(=O)N3CCC(CCCC(=O)NCCCN4CCOCC4)CC3)CC[C@]3(C)[C@H](CC[C@@H]4[C@@]5(C)CC[C@H](OC(=O)CC(C)(C)C(=O)O)C(C)(C)[C@@H]5CC[C@]43C)[C@@H]12", "note": "[Compound 48, N’-[N-[3β-O-(3′,3′-Dimethylsuccinyl)-lup-20(29)-en-28-oyl]-4-piperidine-butanoyl]-3-aminopropylmorpholine]", "values": [
      {"measurement": "TI = CC50/EC50", "setting": "HIV-1IIIB", "result": "3,087"}
    ]}
  ]
}
